# How the values were obtained:
# [1] = DPPH free radical scavenging (antioxidant) assay; settings: in-vitro
# Description: The synthesized pyrazolone derivatives’ capacity to scavenge free radicals DPPH was assessed using a modified Zheleva-Dimitrova technique. Also, the DPPH radical was investigated to L-ascorbic acid with concentrations (10–100 μM) that serving as the standard positive control and the scavenging percent was calculated by Eq. 1.1 [drawing 1]
# [2] = tested on: HCT-116, HepG2, and MCF-7; experiment: MTT assay, whole panel of cancer cell lines (result in words); assay type: cell-based, human; settings: 48 h, compared with Sorafenib
# Description: (§1) Mammary gland (MCF-7;# ATCC HTB-22), colorectal adenocarcinoma (HCT-116; # ATCC CCL-247)), hepatocellular carcinoma (HepG-2; #ATCC HB-8065), and human lung fibroblast (WI-38; # ATCC CCL-75). The ATCC cell line was obtained via the Holding Company for Biological Products and Vaccines (VACSERA), Cairo, Egypt.
# (§2) The MTT test was utilized to ascertain the pyrazolone derivatives’ inhibitory effects on cell growth using the aforementioned cell lines. This colorimetric assay is based on the transformation of yellow tetrazolium bromide (MTT) by mitochondrial succinate dehydrogenase in living cells into a purple formazan derivative. The RPMI-1640 medium was supplemented with 10% fetal bovine serum to cultivate cell lines. At 37° C in an incubator with 5% CO2, 100 units/mL of penicillin and 100 µg/mL of streptomycin were introduced as antibiotics. The cell lines were seeded by 1.0 × 10^4 cells/well in a 96-well plate and kept at 37 °C for 24 h with 5% CO2. Following incubation, the cells were subjected to several concentrations of newly synthesized pyrazolone derivatives and left for 48 h incubation.20 µL of a 5 mg/mL MTT solution was added and incubated for 4 h after the drug treatment. To dissolve the purple formazan produced in each well, 100 µL of dimethyl sulfoxide (DMSO) was applied. The colorimetric test is performed at 630 nm absorbance and recorded using a plate reader (EXL 800, USA)[32].
# (§3) GraphPad Prism 6 (San Diego, CA) (GraphPad Prism 6, https://www.graphpad.com/scientific-software/prism/) was used to calculate the IC50 values and the data was expressed as mean ± SE.
# HepG-2 = experiment: MTT assay, HepG-2 hepatocellular carcinoma cells; assay type: cell-based; settings: Homo sapiens, HepG2, 48 h, mean ± SE, read-out: IC50 against HepG-2
# HCT-116 = experiment: MTT assay, HCT-116 colorectal adenocarcinoma cells; assay type: cell-based; settings: Homo sapiens, 48 h, mean ± SE, read-out: IC50 against HCT-116
# WI-38 = experiment: MTT assay, WI-38 normal human lung fibroblast cells; assay type: cell-based; settings: 48 h, compared with SOR
# Description: as §1
# as §2, with “Following incubation, the cells were subjected to several concentrations of newly synthesized pyrazolone derivatives and left for 48 h incubation.20 µL of a 5 mg/mL MTT solution was added and incubated for 4 h after the drug treatment. To dissolve the purple formazan produced in each well, 100 µL of dimethyl sulfoxide (DMSO) was applied.” left out
# as §3
# MCF-7 = experiment: MTT assay, MCF-7 mammary gland cells; assay type: cell-based; settings: Homo sapiens, MCF7, 48 h, mean ± SE, read-out: IC50 against MCF-7
# [3] = MTT assay, WI-38 normal human lung fibroblast cells; assay type: cell-based; settings: human, WI-38 normal lung fibroblast cells
# Description: as §1
# as §2, with “Following incubation, the cells were subjected to several concentrations of newly synthesized pyrazolone derivatives and left for 48 h incubation.20 µL of a 5 mg/mL MTT solution was added and incubated for 4 h after the drug treatment. To dissolve the purple formazan produced in each well, 100 µL of dimethyl sulfoxide (DMSO) was applied.” left out
# as §3
Compound,IC50 [1] [µM],IC50 (HepG-2) [µM],IC50 (HCT-116) [µM],IC50 (MCF-7) [µM],melting point [°C],IC50 at 48 h [3] [µM],Impact on all panels of cancer cell lines (in words) [2],Cytotoxic effect on WI-38 normal cells (in words) (WI-38)
"3-amino-4-((4-(6-(4-(dimethylamino)phenyl)-2-oxo-1,2-dihydropyridine-4-yl)phenyl)diazenyl)-1-phenyl-1H-pyrazole-5(4H)-one [Compound 7]",93.7 ± 0.47,,,,,,moderate to weak impact,
"CN(C)c1ccc(-c2cc(-c3ccc(/N=N/C4C(=O)N(c5ccccc5)N=C4N)cc3)nc(N)c2C#N)cc1 (stereo not drawn) [Compound 10, (E)-2-amino-6-(4-((3-amino-5-oxo-1-phenyl-4,5-dihydro-1H-pyrazole-4-yl)diazenyl)phenyl)-4-(4-(dimethylamino)phenyl)nicotinonitrile]",74.3 ± 0.38,,,,116,,moderate to weak impact,
"CN(C)c1ccc(-c2cc(-c3ccc(/N=N/C4C(=O)N(c5ccccc5)N=C4N)cc3)[nH]c(=O)c2C#N)cc1 (stereo not drawn) [Compound 11, (E)-6-(4-((3-amino-5-oxo-1-phenyl-4,5-dihydro-1H-pyrazol-4-yl)diazenyl)phenyl)-4-(4-(dimethylamino)phenyl)-2-oxo-1,2-dihydropyridine-3-carbonitrile]",53.67 ± 0.29,,,,92,,moderate to weak impact,
"O=C1O[C@H]([C@@H](O)CO)C(O)=C1O [L-ascorbic acid, reference compound]",16.81 ± 0.1,,,,,,,
"CNC(=O)c1cc(Oc2ccc(NC(=O)Nc3ccc(Cl)c(C(F)(F)F)c3)cc2)ccn1 [Sorafenib, reference compound]",,,,,,20.3 ± 0.45,,

# More lines, main results first:
IC50 [1] [µM],IC50 (HepG-2) [µM],IC50 (HCT-116) [µM],IC50 (MCF-7) [µM],melting point [°C],IC50 at 48 h [3] [µM],Compound,Impact on all panels of cancer cell lines (in words) [2],Cytotoxic effect on WI-38 normal cells (in words) (WI-38)
19.88 ± 0.15,5.85 ± 0.4,7.67 ± 0.5,6.97 ± 0.5,96,,"CN(C)c1ccc(C2CC(c3ccc(N=NC4C(=O)N(c5ccccc5)N=C4N)cc3)=NN2c2ccccc2)cc1 (stereo not drawn) [Compound 4, 3-amino-4-((4-(5-(4-(dimethylamino)phenyl)-1-phenyl-4,5-dihydro-1H-pyrazole-3-yl)phenyl)diazenyl)-1-phenyl-1H-pyrazole-5(4H)-one]",,no cytotoxic effects
32.4 ± 0.2,25.6 ± 1.7,16.5 ± 1.3,19.8 ± 1.5,74,,"CC(=O)N1N=C(c2ccc(N=NC3C(=O)N(c4ccccc4)N=C3N)cc2)CC1c1ccc(N(C)C)cc1 (stereo not drawn) [Compound 6, 4-((4-(1-acetyl-5-(4-(dimethylamino)phenyl)-4,5-dihydro-1H-pyrazole-3-yl)phenyl)diazenyl)-3-amino-1-phenyl-1H-pyrazole-5(4H)-one]",,
65.54 ± 0.32,,,,103,,"CN(C)c1ccc(-c2cc(-c3ccc(N=NC4C(=O)N(c5ccccc5)N=C4N)cc3)nc(=S)[nH]2)cc1 (stereo not drawn) [Compound 8, 3-amino-4-((4-(6-(4-(dimethylamino)phenyl)-2-thioxo-1,2-dihydropyrimidin-4-yl)phenyl)diazenyl)-1-phenyl-1H-pyrazol-5(4H)-one]",moderate to weak impact,
47.07 ± 0.24,,,,139,,"CN(C)c1ccc(C2C=C(c3ccc(/N=N/C4C(=O)N(c5ccccc5)N=C4N)cc3)OC(N)=C2C#N)cc1 (stereo not drawn) [Compound 9, (E)-2-amino-6-(4-((3-amino-5-oxo-1-phenyl-4,5-dihydro-1H-pyrazole-4-yl)diazenyl)phenyl)-4-(4-(dimethylamino)phenyl)-4H-pyran-3-carbonitrile]",moderate to weak impact,
